US20040142007A1, “Cosmetic preparations containing an extract of germinating plants” (priority 2001, published 2004)

System: B16 melanocytes
Test: Inhibition of melanin synthesis in B16 melanocytes
Assay type: cell-based
Conditions: 0.5% w/v; 3 days; control = 100%
Description: To carry out the test, melanocytes (B16 cell line) were incubated for 3 days at 37° C./5% CO2 in a standard growth medium for cell cultures containing foetal calf serum (FCS). The growth medium was then replaced by a standard medium with which the substances to be tested were adjusted to different concentrations. After incubation for 3 days, the number of living cells was determined through the cell protein content (Bradford's method) and the content of synthesized melanin—recorded in the cell homogenizate at an optical density of 475 nm. The results are expressed in % against a control of pure cell culture medium.

OC[C@H]1O[C@@H](Oc2ccc(O)cc2)[C@H](O)[C@@H](O)[C@@H]1O [Arbutin]
Cell protein content: 81% | Melanin content: 35%
